Laboratory results as given in patent publication US20210284618A1, “FURANOCHALCONES AS INHIBITORS OF CYP1A1, CYP1A2 AND CYP1B1 FOR CANCER CHEMOPREVENTION” (Council of Scientific & Industrial Research, priority 2016, published 2021).
Values joined by “and” are separate entries in the source; they are usually repeats but may differ in a detail not shown here. Equal entries are not always repeated.

Columns and labels:
CYP2D6 = molecular target: T1, CYP2D6 (Homo sapiens, UniProt P10635); test: CYP2D6 inhibition in Saccharosomes; type: biochemical
T1 construct: host or cells: yeast microsomes (Saccharosomes)
T1 sequence (P10635 whole entry): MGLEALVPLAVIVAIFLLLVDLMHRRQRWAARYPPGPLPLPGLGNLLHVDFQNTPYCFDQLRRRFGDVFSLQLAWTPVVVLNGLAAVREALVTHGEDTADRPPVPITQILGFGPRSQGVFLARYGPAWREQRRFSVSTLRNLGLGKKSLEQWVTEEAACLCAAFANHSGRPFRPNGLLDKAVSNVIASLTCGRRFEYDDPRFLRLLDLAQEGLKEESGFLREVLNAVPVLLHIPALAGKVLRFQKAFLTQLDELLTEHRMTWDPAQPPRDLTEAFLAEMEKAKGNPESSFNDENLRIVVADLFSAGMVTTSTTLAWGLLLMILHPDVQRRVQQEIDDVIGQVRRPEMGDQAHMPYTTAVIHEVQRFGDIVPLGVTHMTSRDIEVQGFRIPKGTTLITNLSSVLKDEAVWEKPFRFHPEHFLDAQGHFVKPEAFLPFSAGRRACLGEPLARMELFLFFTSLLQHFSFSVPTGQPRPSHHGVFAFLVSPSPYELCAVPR
Experimental: (§1) Example 25. IC50 determination for best compound against CYP1A1, CYP1B1 and other CYPs in Saccharosomes. Compounds were serially diluted to six different concentrations with 10% DMSO in a Sero-Well white microplate. The experiment was performed in a similar way as described above in examples 23 and 24.

CYP2C8 = molecular target: T2, CYP2C8 (Homo sapiens, UniProt P10632); test: CYP2C8 inhibition in Saccharosomes; type: biochemical; conditions: Saccharosomes containing CYP2C8
T2 construct: host or cells: yeast microsomes (Saccharosomes)
T2 sequence (P10632 1-490): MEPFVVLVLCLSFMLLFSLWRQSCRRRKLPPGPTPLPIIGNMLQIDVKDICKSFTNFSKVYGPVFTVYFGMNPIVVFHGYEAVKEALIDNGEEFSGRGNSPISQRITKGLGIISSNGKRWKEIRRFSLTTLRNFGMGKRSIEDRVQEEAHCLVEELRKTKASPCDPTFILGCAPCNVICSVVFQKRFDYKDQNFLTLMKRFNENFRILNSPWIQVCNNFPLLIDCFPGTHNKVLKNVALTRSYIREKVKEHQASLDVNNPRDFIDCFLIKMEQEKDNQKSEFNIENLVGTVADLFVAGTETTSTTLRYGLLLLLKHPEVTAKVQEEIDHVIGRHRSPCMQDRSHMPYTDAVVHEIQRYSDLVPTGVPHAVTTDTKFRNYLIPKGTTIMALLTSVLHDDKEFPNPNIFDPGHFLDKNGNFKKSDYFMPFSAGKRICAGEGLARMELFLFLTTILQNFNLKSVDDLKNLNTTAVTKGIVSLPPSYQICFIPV

CYP2C18 = molecular target: T3, CYP2C18 (Homo sapiens, UniProt P33260); test: CYP2C18 inhibition in Saccharosomes; type: biochemical; conditions: Saccharosomes containing CYP2C18
T3 construct: host or cells: yeast microsomes (Saccharosomes)
T3 sequence (P33260 26-490): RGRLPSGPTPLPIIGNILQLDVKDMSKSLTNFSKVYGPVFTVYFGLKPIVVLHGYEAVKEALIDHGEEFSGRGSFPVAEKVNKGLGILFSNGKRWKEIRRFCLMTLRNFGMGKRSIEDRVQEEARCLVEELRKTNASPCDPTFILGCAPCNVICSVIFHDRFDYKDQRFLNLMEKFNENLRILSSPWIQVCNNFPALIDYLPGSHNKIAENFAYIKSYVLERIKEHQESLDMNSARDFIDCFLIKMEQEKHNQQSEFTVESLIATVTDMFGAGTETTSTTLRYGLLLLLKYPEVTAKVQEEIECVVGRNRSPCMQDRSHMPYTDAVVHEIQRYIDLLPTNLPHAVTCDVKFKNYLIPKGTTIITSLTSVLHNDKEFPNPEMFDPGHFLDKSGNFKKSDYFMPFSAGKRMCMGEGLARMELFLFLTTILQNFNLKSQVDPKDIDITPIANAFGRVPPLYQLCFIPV

CYP2C9 = molecular target: T4, CYP2C9 (Homo sapiens, UniProt P11712); test: CYP2C9 inhibition in Saccharosomes; type: biochemical; conditions: Saccharosomes containing CYP2C9
T4 construct: host or cells: yeast microsomes (Saccharosomes)
T4 sequence (P11712 whole entry): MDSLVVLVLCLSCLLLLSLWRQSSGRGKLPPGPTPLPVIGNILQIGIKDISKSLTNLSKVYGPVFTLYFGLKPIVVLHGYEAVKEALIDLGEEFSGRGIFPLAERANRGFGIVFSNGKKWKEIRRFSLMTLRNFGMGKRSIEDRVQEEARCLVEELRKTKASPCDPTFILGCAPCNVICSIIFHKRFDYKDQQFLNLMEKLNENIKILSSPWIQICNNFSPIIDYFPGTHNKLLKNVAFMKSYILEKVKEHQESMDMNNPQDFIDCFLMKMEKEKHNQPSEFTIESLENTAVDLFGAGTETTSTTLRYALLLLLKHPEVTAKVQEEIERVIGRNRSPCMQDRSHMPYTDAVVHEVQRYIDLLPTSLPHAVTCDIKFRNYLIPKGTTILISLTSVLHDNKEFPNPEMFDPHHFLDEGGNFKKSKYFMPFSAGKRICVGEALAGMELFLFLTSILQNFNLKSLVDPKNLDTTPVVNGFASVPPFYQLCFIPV

CYP1A1 = molecular target: T5, CYP1A1 (Homo sapiens, UniProt P04798); test: In-vitro CYP450 1A1 enzyme inhibition in Saccharosomes; type: biochemical
T5 construct: host or cells: yeast microsomes (Saccharosomes)
T5 sequence (P04798 1-512): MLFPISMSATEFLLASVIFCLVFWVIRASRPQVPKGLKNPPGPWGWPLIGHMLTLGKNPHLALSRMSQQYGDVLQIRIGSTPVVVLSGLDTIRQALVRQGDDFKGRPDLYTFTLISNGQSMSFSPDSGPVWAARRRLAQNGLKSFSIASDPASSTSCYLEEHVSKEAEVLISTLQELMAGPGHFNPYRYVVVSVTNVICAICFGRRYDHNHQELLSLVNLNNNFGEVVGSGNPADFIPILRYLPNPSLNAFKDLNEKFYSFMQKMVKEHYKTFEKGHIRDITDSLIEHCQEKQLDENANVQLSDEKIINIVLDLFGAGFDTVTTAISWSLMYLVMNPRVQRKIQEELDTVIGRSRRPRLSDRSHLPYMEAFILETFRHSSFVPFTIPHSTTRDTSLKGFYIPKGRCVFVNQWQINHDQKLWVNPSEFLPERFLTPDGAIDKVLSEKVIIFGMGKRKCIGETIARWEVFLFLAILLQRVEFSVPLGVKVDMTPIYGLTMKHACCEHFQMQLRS
Experimental: Example 23. In-vitro CYP450 1A1 enzyme inhibition in Saccharosomes™: The screening method utilizes 384-well microplates to rapidly ascertain relative percentage inhibition of CYP1A1 by a library of compounds. Each reaction was performed in black, clear-bottomed 384-well microplates. A reaction volume of 50 μl comprised of 0.5 pmol of the cytochrome P450 CYP1A1 (Saccharosomes), 5 μM of ethoxyresorufin substrate (which contributes 0.05% DMSO to the well), 10 μM of potential inhibitor test article (which contributes 0.5% DMSO to the well), A P450 reductase NADPH regenerating system (1.3 mM NADP+, 3.3 mM glucose-6-0.02 units phosphate and glucose-6-Phosphate dehydrogenase), potassium phosphate buffer (final well concentration 100 mM, pH 7.4) and water. Very small quantities of magnesium chloride and sodium citrate are added to the NADPH regenerating system, in line with standard published protocols. The potential inhibitor (test article) was pre-incubated with CYP1A1 of at least 20 minutes at 30° C. After this period, the remainder of the reagents required in the assay was added to initiate the process. The reaction mixture was incubated for another 20 minutes at 30° C. The reaction was stopped by adding an 80% acetonitrile, 20% 0.5 M Tris solution. The reactions were monitored using the Biotek Synergy HT plate reader by measuring the endpoint reaction at Excitation 530/(25 bandwidth) & Emission 590/(20 bandwidth) using a gain/sensitivity setting of 60. The mean of the quadruplicates of the negative control (solvent inactivated CYP1A1) was deducted from the mean of potential inhibitor (test article) samples. The percentage was then derived relative to the mean of the wells without inhibitor.
as §1

CYP3A4 = molecular target: T6, CYP3A4 (Homo sapiens, UniProt P08684); test: CYP3A4 inhibition in Saccharosomes; type: biochemical
T6 construct: host or cells: yeast microsomes (Saccharosomes)
T6 sequence (P08684 whole entry): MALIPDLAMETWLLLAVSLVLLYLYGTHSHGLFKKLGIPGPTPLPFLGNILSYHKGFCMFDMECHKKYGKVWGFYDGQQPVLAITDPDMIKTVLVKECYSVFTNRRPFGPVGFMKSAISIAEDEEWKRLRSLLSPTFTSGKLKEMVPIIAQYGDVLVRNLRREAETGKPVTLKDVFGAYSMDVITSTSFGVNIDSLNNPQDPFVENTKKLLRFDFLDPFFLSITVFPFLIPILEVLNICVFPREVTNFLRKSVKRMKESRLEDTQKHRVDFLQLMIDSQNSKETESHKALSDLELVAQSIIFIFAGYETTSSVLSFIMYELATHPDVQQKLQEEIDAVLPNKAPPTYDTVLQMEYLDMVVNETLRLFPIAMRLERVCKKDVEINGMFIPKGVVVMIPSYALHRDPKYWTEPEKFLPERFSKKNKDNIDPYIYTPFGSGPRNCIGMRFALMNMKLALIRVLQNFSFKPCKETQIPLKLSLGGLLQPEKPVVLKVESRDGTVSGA
Experimental: as §1

IC50 (CYP2D6): 7 µM
inhibition at 20 µM (CYP2D6; human, Saccharosomes containing CYP2D6, 20 μM): 84%
inhibition at 20 µM (CYP2C8): 24%
inhibition at 20 µM (CYP2C18): 63%
inhibition at 20 µM (CYP2C9): 62%
IC50 (CYP1A1): 0.342 µM
% inhibition of CYP1A1 in Saccharosomes at 10 μM (CYP1A1; 10 μM test compound, 5 μM ethoxyresorufin): 97% and 97.2%
inhibition at 20 min, 10 μM (CYP1A1; human, Saccharosomes containing CYP1A1, pH 7.4, probe ethoxyresorufin (5 μM), % inhibition of CYP1A1 in Saccharosomes at 10 μM, 10 μM test compound, 5 μM ethoxyresorufin): > 80%
melting point: 112 to 114 °C
IC50 (CYP3A4): 3 µM
SMILES: COc1c(C(=O)/C=C/c2cccnc2)c(O)c(OC)c2occc12 [Compound 8, 3-(4,7-dimethoxy-6-hydroxybenzofuran-5-yl)-1-(pyridin-3-yl)-3-oxopropene]
